Measured values taken from US5688936A, “Vesicle membrane transport proteins” (priority 1993, dated 1997).

System: wild-type CHO cells
Test: MTT cytotoxicity assay in wild-type CHO cells
Assay type: cell-based, Chinese hamster
Conditions: wild-type CHO, lower MPP+ concentrations
Experimental: Differential susceptibility to the respiratory complex I inhibitors MPP^+ and rotenone was shown by measuring toxicity by measuring general cell dehydrogenase activity with reduction of a tetrazolium dye (MTT) in a spectrophotometric plate assay as described by Hansen et al., J. Immunol. Methods 119:203-210 (1989). Briefly, a stock solution of MTT (3,(4,5-dimethylthiazol-2-yl)2,5-diphenyltetrazolium bromide) was dissolved at a concentration of 5 mg/ml in sterile phosphate buffered saline at room temperature. To each well was added 25 μl of the stock solution. After two hours of incubation at 37° C., 100 μl of extraction buffer (20% w/v of SDS in a solution of 50% each dimethylformamide and demineralized water with the pH adjusted to 4.7 with acetic acid and HCl). After an overnight incubation at 37° C., the optical densities at 570 nm were measured using a multiscanner, employing the extraction buffer as the blank. This assay was carried out in triplicate on 96-well plates (NUNC, Denmark). MPP^+ and rotenone at the concentrations indicated in FIG. 6a and 6b, respectively, was added to wild-type and MPP^+ -resistant CHO cells at approximately 50% confluence, and toxicity was assayed after 2-3 days by measuring general cell dehydrogenase activity with the reduction of the tetrazolium dye MTT (3,(4,5-dimethylthiazol-2-yl)2,5-diphenyl-tetrazolium bromide). After addition of the dye at a final concentration of 1 mg/ml, the cells were incubated for two hours at 37° C. and the formazan product was solubilized in 10% sodium dodecyl sulfate (SDS). The plates were maintained at 37° C. for an additional twenty hours and the optical density was determined in an ELISA plate reader at a test wavelength of 570 nm, a reference wavelength of 630 nm and a calibration setting of 1.99. All determinations were performed in triplicate and expressed as the mean, with the error bars representing standard deviation (FIG. 6a and 6b).

COC(=O)[C@H]1[C@H]2C[C@@H]3c4[nH]c5cc(OC)ccc5c4CCN3C[C@H]2C[C@@H](OC(=O)c2cc(OC)c(OC)c(OC)c2)[C@@H]1OC [reserpine]
effect on MPP+ toxicity in wild-type cells: very little reproducible effect
